Experimental data: patent US20080058293A1, “Quinoline Derivates and Their Use in Therapy” (priority 2003, published 2008)
Counter-ions that a name gives are not always drawn.

Molecular target: T1, P2X7 receptor (Homo sapiens, UniProt Q99572)
T1 construct: 200 μl of a suspension of THP-1 cells; endogenous in cells; host or cells: THP-1 cells
T1 sequence (Q99572 1-595): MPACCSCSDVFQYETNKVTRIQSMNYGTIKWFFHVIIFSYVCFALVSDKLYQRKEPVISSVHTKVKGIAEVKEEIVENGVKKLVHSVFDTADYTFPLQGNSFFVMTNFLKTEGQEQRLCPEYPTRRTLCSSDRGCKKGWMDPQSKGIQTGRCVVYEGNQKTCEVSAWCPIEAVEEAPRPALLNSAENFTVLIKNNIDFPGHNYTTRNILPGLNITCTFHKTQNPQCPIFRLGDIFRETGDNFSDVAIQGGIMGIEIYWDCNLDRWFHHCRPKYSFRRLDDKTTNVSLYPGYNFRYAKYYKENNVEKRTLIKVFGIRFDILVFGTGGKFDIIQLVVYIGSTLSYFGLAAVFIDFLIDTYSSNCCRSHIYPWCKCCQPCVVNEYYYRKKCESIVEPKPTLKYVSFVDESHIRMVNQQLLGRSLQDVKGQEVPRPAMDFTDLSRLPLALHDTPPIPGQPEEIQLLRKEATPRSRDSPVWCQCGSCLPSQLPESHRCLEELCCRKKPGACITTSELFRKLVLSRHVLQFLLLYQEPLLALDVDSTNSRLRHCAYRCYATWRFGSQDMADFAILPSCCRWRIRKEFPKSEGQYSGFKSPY
Assay: bbATP-induced ethidium bromide fluorescence in THP-1 cells, P2X7 receptor antagonist activity
Assay type: cell-based
Details: negative logarithm of concentration reducing bbATP agonist activity by 50%, 10^-5M bbATP, 37° C. one hour
From the text: Certain compounds such as benzoylbenzoyl adenosine triphosphate (bbATP) are known to be agonists of the P2X7 receptor, effecting the formation of pores in the plasma membrane (Drug Development Research (1996), 37(3), p. 126). Consequently, when the receptor is activated using bbATP in the presence of ethidium bromide (a fluorescent DNA probe), an increase in the fluorescence of intracellular DNA-bound ethidium bromide is observed. The increase in fluorescence can be used as a measure of P2X7 receptor activation and therefore to quantify the effect of a compound on the P2X7 receptor.
In this manner, each of the title compounds of the Examples was tested for antagonist activity at the P2X7 receptor. Thus, the test was performed in 96-well flat bottomed microtitre plates, the wells being filled with 250 μl of test solution comprising 200 μl of a suspension of THP-1 cells (2.5×10^6 cells/ml) containing 10^−4M ethidium bromide, 25 μl of a high potassium buffer solution containing 10^−5M bbATP, and 25 μl of the high potassium buffer solution containing 3×10^−5M test compound. The plate was covered with a plastics sheet and incubated at 37° C. for one hour. The plate was then read in a Perkin-Elmer fluorescent plate reader, excitation 520 nm, emission 595 nm, slit widths: Ex 15 nm, Em 20 nm. For the purposes of comparison, bbATP (a P2X7 receptor agonist) and pyridoxal 5-phosphate (a P2X7 receptor antagonist) were used separately in the test as controls.
`Cc1ccc2c(C(=O)NC[C@H](C)c3ccccc3)c(Cl)ccc2n1` [Example 1, 6-Chloro-2-methyl-N-[(2R)-2-phenylpropyl]-5-quinolinecarboxamide, hydrochloride] gave an IC50 of 316 nM.

System: not given
Assay: not given
Details: not given
Compound `O=C(NCC(c1ccccc1)c1ccccc1)c1c(Cl)ccc2nc(N3CCC(C(=O)O)CC3)ccc12` (as salt: acetate) [Example 25, 1-[6-Chloro-5-[[(2,2-diphenylethyl)amino]carbonyl]-2-quinolinyl]-4-piperidinecarboxylic acid, acetate] has a melting point of 180 to 185 °C. With `Cc1ccc2c(C(=O)NC[C@H](C)c3ccccc3)c(Cl)ccc2n1` (as salt: hydrochloride) [Example 1, 6-Chloro-2-methyl-N-[(2R)-2-phenylpropyl]-5-quinolinecarboxamide, hydrochloride] the melting point was 190 to 192 °C. Compound `Cc1ccc2c(C(=O)NC[C@@H](C)c3ccccc3)c(Cl)ccc2n1` (as salt: hydrochloride) [Example 2, 6-Chloro-2-methyl-N-[(2S)-2-phenylpropyl]-5-quinolinecarboxamide, hydrochloride] has a melting point of 182 to 185 °C. In the case of `C[C@H](CC(=O)Nc1c(Cl)ccc2nc(NCCNCCO)ccc12)c1ccccc1` (as salt: hydrochloride) [Example 9, (βR)-N-[6-Chloro-2-[[2-[(2-hydroxyethyl)amino]ethyl]amino]-5-quinolinyl]-β-methyl-benzenepropanamide, dihydrochloride], the melting point is reported as 178 to 182 °C. `O=C(CCc1ccccc1Cl)Nc1c(Cl)ccc2nc(N3CCNCC3)ccc12` (as salt: hydrochloride) [Example 10, 2-Chloro-N-[6-chloro-2-(1-piperazinyl)-5-quinolinyl]-benzenepropanamide, dihydrochloride] showed a melting point of 265 to 270 °C. With `O=C(CCc1ccc(Cl)cc1Cl)Nc1c(Cl)ccc2nc(N3CCNCC3)ccc12` (as salt: hydrochloride) [Example 11, 2,4-Dichloro-N-[6-chloro-2-(1-piperazinyl)-5-quinolinyl]-benzenepropanamide, dihydrochloride] the melting point was 200 °C (dec.). `O=C(CCc1ccc(Cl)cc1)Nc1c(Cl)ccc2nc(N3CCNCC3)ccc12` (as salt: hydrochloride) [Example 12, 4-Chloro-N-[6-chloro-2-(1-piperazinyl)-5-quinolinyl]-benzenepropanamide, dihydrochloride] gave a melting point of 183 to 188 °C. With `C[C@H](CC(=O)Nc1c(Cl)ccc2nc(N3CC[C@H](NCCO)C3)ccc12)c1ccccc1` (as salt: hydrochloride) [Example 16, (βR)-N-[6-Chloro-2-[(3S)-3-[(2-hydroxyethyl)amino]-1-pyrrolidinyl]-5-quinolinyl]-β-methyl-benzenepropanamide, dihydrochloride] the melting point was 177 to 182 °C. In the case of `CNCCCN(C)c1ccc2c(NC(=O)C[C@@H](C)c3ccccc3)c(Cl)ccc2n1` (as salt: trifluoroacetate) [Example 3, (βR)-N-[6-Chloro-2-[methyl[3-(methylamino)propyl]amino]-5-quinolinyl]-β-methyl-benzenepropanamide, ditrifluoroacetate], the melting point is reported as 159 to 162 °C. In the case of `C[C@H](CC(=O)Nc1c(Cl)ccc2nc(N3CCNCC3)ccc12)c1ccccc1` [Example 4, (βR)-N-[6-Chloro-2-(1-piperazinyl)-5-quinolinyl]-β-methyl-benzenepropanamide], the melting point is reported as 194 to 196 °C. Compound `Cc1ccc2c(C(=O)NCCc3ccccc3)c(Cl)ccc2n1` [Example 5, 6-Chloro-2-methyl-N-(2-phenylethyl)-5-quinolinecarboxamide] has a melting point of 170 to 172 °C. For `C[C@H](CC(=O)Nc1c(Cl)ccc2nc(CCCNCCCO)ccc12)c1ccccc1` [Example 7, (βR)-N-[6-Chloro-2-[3-[(3-hydroxypropyl)amino]propyl]-5-quinolinyl]-β-methyl-benzenepropanamide], the melting point was 118 to 120 °C. For `CC(Cc1ccc(Cl)c(Cl)c1)C(=O)Nc1cccc2ncccc12` (stereo not drawn) [Example 8, 3,4-Dichloro-α-methyl-N-5-quinolinyl-benzenepropanamide], the melting point was 168 to 170 °C. With `C[C@H](CC(=O)Nc1c(Cl)ccc2nc(N3CC[C@H](N)C3)ccc12)c1ccccc1` [Example 13, (βR)-N-[2-[(3S)-3-Amino-1-pyrrolidinyl]-6-chloro-5-quinolinyl]-β-methyl-benzenepropanamide] the melting point was 204 to 207 °C. For `C[C@H](CC(=O)Nc1c(Cl)ccc2nc(N3CC[C@H](NCCCO)C3)ccc12)c1ccccc1` [Example 15, (βR)-N-[6-Chloro-2-[(3S)-3-[(3-hydroxypropyl)amino]-1-pyrrolidinyl]-5-quinolinyl]-β-methyl-benzenepropanamide], the melting point was 155 to 158 °C. `O=C(CCc1ccccc1)Nc1c(Cl)ccc2nc(N3CCNCC3)ccc12` [Example 17, N-[6-Chloro-2-(1-piperazinyl)-5-quinolinyl]-benzenepropanamide] gave a melting point of 231 to 234 °C. For `N[C@H]1CCN(c2ccc3c(NC(=O)CCc4ccccc4Cl)c(Cl)ccc3n2)C1` [Example 18, N-[2-[(3S)-3-Amino-1-pyrrolidinyl]-6-chloro-5-quinolinyl]-2-chlorobenzenepropanamide], the melting point was 200 to 212 °C. In the case of `O=C(CCc1ccccc1Cl)Nc1c(Cl)ccc2nc(N3CC[C@H](NCCO)C3)ccc12` [Example 19, 2-Chloro-N-[6-chloro-2-[(3S)-3-[(2-hydroxyethyl)amino]-1-pyrrolidinyl]-5-quinolinyl]-benzenepropanamide], the melting point is reported as 180 to 182 °C. `N[C@H]1CCN(c2ccc3c(C(=O)NCCc4ccccc4Cl)c(Cl)ccc3n2)C1` [Example 21, 2-[(3S)-3-Amino-1-pyrrolidinyl]-6-chloro-N-[2-(2-chlorophenyl)ethyl]-5-quinolinecarboxamide] gave a melting point of 196 to 198 °C. Compound `O=C(NCCc1ccccc1Cl)c1c(Cl)ccc2nc(N3CC[C@H](NCCO)C3)ccc12` [Example 22, 6-Chloro-N-[2-(2-chlorophenyl)ethyl]-2-[(3S)-3-[(2-hydroxyethyl)amino]-1-pyrrolidinyl]-5-quinolinecarboxamide] has a melting point of 170 to 172 °C. `O=C(NCCc1c(Cl)cccc1Cl)c1c(Cl)ccc2nc(N3CCC(C(=O)O)CC3)ccc12` [Example 23, 1-[6-Chloro-5-[[[2-(2,6-dichlorophenyl)ethyl]amino]carbonyl]-2-quinolinyl]-4-piperidinecarboxylic acid] gave a melting point of 262 to 264 °C. `O=C(NCCc1ccccc1Cl)c1c(Cl)ccc2nc(N3CCC(C(=O)O)CC3)ccc12` [Example 24, 1-[6-Chloro-5-[[[2-(2-chlorophenyl)ethyl]amino]carbonyl]-2-quinolinyl]-4-piperidinecarboxylic acid] showed a melting point of 250 to 253 °C. Compound `O=C(NCCc1ccccc1)c1c(Cl)ccc2nc(N3CCC(C(=O)O)CC3)ccc12` [Example 26, 1-[6-Chloro-5-[[(2-phenylethyl)amino]carbonyl]-2-quinolinyl]-4-piperidinecarboxylic acid] has a melting point of 260 to 262 °C. With `O=C(NCCc1ccccc1F)c1c(Cl)ccc2nc(N3CCC(C(=O)O)CC3)ccc12` [Example 27, 1-[6-Chloro-5-[[[2-(2-fluorophenyl)ethyl]amino]carbonyl]-2-quinolinyl]-4-piperidinecarboxylic acid] the melting point was 270 to 272 °C. For `Cc1ccccc1CCNC(=O)c1c(Cl)ccc2nc(N3CCC(C(=O)O)CC3)ccc12` [Example 28, 1-[6-Chloro-5-[[[2-(2-methylphenyl)ethyl]amino]carbonyl]-2-quinolinyl]-4-piperidinecarboxylic acid], the melting point was 237 to 241 °C. Compound `C[C@H](CNC(=O)c1c(Cl)ccc2nc(N3CCC(C(=O)O)CC3)ccc12)c1ccccc1` [Example 29, 1-[6-Chloro-5-[[[(2S)-2-phenylpropyl]amino]carbonyl]-2-quinolinyl]-4-piperidinecarboxylic acid] has a melting point of 150 to 153 °C. Compound `O=C(NCCc1ccc(Cl)cc1)c1c(Cl)ccc2nc(N3CCC(C(=O)O)CC3)ccc12` [Example 31, 1-[6-Chloro-5-[[[2-(4-chlorophenyl)ethyl]amino]carbonyl]-2-quinolinyl]-4-piperidinecarboxylic acid] has a melting point of 231 to 234 °C.
